{"source": "ChEMBL document CHEMBL6083237", "about": "“Adenanthin exhibits anti-inflammatory effects by covalently targeting the p65 subunit in the NF-κB signaling pathway” (Eur J Med Chem, 2024)", "key": {"[1]": {"target": "T1, Transcription factor p65 (Homo sapiens, UniProt Q04206)", "T1 sequence (Q04206 whole entry)": "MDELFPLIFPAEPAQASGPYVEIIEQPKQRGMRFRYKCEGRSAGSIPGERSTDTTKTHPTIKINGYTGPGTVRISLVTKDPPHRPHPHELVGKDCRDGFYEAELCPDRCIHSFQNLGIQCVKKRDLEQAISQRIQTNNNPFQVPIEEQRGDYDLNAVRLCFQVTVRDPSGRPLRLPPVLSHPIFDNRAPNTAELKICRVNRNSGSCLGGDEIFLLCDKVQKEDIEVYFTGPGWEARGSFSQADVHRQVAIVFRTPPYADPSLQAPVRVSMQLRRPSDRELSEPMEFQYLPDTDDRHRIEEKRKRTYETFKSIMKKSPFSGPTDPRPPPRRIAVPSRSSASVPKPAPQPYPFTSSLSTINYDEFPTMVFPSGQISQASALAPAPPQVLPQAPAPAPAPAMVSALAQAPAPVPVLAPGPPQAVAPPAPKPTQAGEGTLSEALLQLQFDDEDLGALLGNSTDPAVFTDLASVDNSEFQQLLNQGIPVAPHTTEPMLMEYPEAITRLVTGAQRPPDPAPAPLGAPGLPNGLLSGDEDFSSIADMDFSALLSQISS", "assay": "(§1) Binding affinity to recombinant FLAG-tagged p65 (unknown origin) expressed in HEK293T cells assessed as retention time of carbamidomethylation on Cys38 residue of C38EGRSAGSIPGERSTDTTK56 with m/z 814.7165 measured following LysC digestion at 10 uM incubated for 3 hrs by HCD/EThcD based mass spectrometry", "type": "cell-based"}, "[2]": {"target": "T1, Transcription factor p65", "assay": "as §1, with “814.7164” for “814.7165”", "type": "cell-based"}, "[3]": {"system": "RAW264.7", "assay": "Inhibition of p65 phosphorylation in LPS-stimulated mouse RAW264.7 cells at 1 to 10 uM incubated for 6 hrs by wester blot analysis", "type": "cell-based", "details": "dose 1-10 µM"}, "[4]": {"target": "T2, NF-kappa-B inhibitor alpha (Mus musculus) (UniProt Q9Z1E3)", "T2 sequence (whole entry)": "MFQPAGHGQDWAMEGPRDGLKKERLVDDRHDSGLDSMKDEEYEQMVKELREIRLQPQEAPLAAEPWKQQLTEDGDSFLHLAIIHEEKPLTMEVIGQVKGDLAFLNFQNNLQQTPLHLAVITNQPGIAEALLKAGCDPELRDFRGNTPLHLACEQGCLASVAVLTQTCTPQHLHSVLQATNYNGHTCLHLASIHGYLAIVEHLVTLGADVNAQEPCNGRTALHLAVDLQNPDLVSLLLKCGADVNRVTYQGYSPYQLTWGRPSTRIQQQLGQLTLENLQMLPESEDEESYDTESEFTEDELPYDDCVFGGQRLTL", "assay": "Inhibition of IkappaB alpha phosphorylation in LPS-stimulated mouse RAW264.7 cells at 1 to 10 uM incubated for 6 hrs by western blot analysis", "type": "cell-based", "details": "dose 1-10 µM"}, "[5]": {"system": "RAW264.7", "assay": "Inhibition of p65 nuclear translocation in LPS-stimulated mouse RAW264.7 cells at 1 to 10 uM incubated for 6 hrs by western blot analysis", "type": "cell-based", "details": "dose 1-10 µM"}, "[6]": {"system": "RAW264.7", "assay": "Inhibition of NF-kappaB signaling pathway in mouse RAW264.7 cells assessed as decrease in COX-2 protein expression at 10 to 75 uM incubated for 6 hrs by western blot analysis", "type": "cell-based", "details": "dose 10-75 µM"}, "[7]": {"system": "RAW264.7", "assay": "Inhibition of NF-kappaB signaling pathway in mouse RAW264.7 cells assessed as decrease in iNOS protein expression at 10 to 75 uM incubated for 6 hrs by western blot analysis", "type": "cell-based", "details": "dose 10-75 µM"}, "[8]": {"target": "T1, Transcription factor p65", "assay": "Displacement of biotin-labeled p65 binding oligonucleotides from p65 (unknown origin) overexpressed in HEK293T cell nuclear extract incubated for 2 hrs by electrophoretic mobility shift assay", "type": "subcellular, Nucleus"}, "[9]": {"assay": "Displacement of biotin-labeled p65 binding oligonucleotides from p65/p65-C38A mutant (unknown origin) overexpressed in HEK293T cell nuclear extract incubated for 2 hrs by electrophoretic mobility shift assay", "type": "subcellular, Homo sapiens, Nucleus"}, "[10]": {"system": "HEK-293T", "assay": "Antiproliferative activity against HEK293T cells assessed as inhibition of cell proliferation incubated for 72 hrs by Alamar Blue dye based fluorescence analysis", "type": "functional", "details": "Homo sapiens"}, "[11]": {"system": "HEK-293T", "assay": "Antiproliferative activity against HEK293T cells overexpressing p65 assessed as inhibition of cell proliferation incubated for 72 hrs by Alamar Blue dye based fluorescence analysis", "type": "functional", "details": "Homo sapiens"}, "[12]": {"system": "HEK-293T", "assay": "Antiproliferative activity against HEK293T cells overexpressing p65 C38A mutant assessed as inhibition of cell proliferation incubated for 72 hrs by Alamar Blue dye based fluorescence analysis", "type": "functional", "details": "Homo sapiens"}, "[13]": {"assay": "Ratio of IC50 for antiproliferative activity against HEK293T cells overexpressing p65 C38A mutant to IC50 for HEK293T cells overexpressing p65", "type": "functional, Homo sapiens"}, "[14]": {"system": "HEK-293T", "assay": "Antiproliferative activity against mutant HEK293T cells overexpressing p65 C38A mutant assessed as inhibition of cell proliferation incubated for 72 hrs by Alamar Blue dye based fluorescence analysis", "type": "functional", "details": "Homo sapiens"}, "[15]": {"assay": "Ratio of IC50 for antiproliferative activity against mutant HEK293T cells overexpressing p65 C38A mutant to IC50 for antiproliferative activity against HEK293T cells", "type": "functional, Homo sapiens"}, "[16]": {"target": "T1, Transcription factor p65", "assay": "Binding affinity to recombinant FLAG-tagged p65 (unknown origin) expressed in HEK293T cells assessed as 490.2203 Da modification on Cys38 residue of C38EGRSAGSIPGERSTDTTK56 measured following LysC digestion at 10 uM incubated for 3 hrs by HCD/EThcD based mass spectrometry", "type": "cell-based"}}, "note": "Active and inactive are the calls of the source. No cut-off for these calls is given here.", "data": [{"smiles": "C=C1C(=O)[C@]23C[C@H]1C[C@H](OC(C)=O)[C@H]2[C@]1(C)[C@@H](OC(C)=O)C[C@H](O)C(C)(C)[C@H]1C(=O)[C@@H]3OC(C)=O", "note": "[ADENANTHIN]", "values": [{"measurement": "Retention time", "setting": "[1]", "result": 14.4, "unit": "min"}, {"measurement": "Retention time", "setting": "[2]", "result": 14.6, "unit": "min"}, {"measurement": "inhibition", "setting": "[3]", "result": "Dose-dependent-effect"}, {"measurement": "inhibition", "setting": "[4]", "result": "Dose-dependent-effect"}, {"measurement": "inhibition", "setting": "[5]", "result": "Active"}, {"measurement": "inhibition", "setting": "[6]", "result": "Active"}, {"measurement": "inhibition", "setting": "[7]", "result": "Active"}, {"measurement": "IC50", "setting": "[8]", "result": "~40", "unit": "µM"}, {"measurement": "IC50", "setting": "[9]", "result": "~100", "unit": "µM"}, {"measurement": "IC50", "setting": "[10]", "result": 720, "unit": "nM"}, {"measurement": "IC50", "setting": "[11]", "result": 810, "unit": "nM"}, {"measurement": "IC50", "setting": "[12]", "result": 2000, "unit": "nM"}, {"measurement": "Ratio IC50", "setting": "[13]", "result": 2}, {"measurement": "IC50", "setting": "[14]", "result": 9.94, "unit": "µM"}, {"measurement": "Ratio IC50", "setting": "[15]", "result": 10}, {"measurement": "Activity", "setting": "[16]", "result": "Active"}]}]}
